Patent publication US5817755A, “Synthetic peptide analogs of cross-linked N-telopeptides of type I collagen” (Washington Research Foundation, priority 1997, dated 1998)
Non-standard residues stand in square brackets, D forms with d. Residues, ends and D or L forms follow the SMILES beside them. Aad = N[C@@H](CCCC(=O)O)C(=O)O; pGlu = O=C1CC[C@@H](C(=O)O)N1; Nva = CCC[C@H](N)C(=O)O

Assays:
mAb 1H11 [1] = experiment: OSTEOMARK competitive immunoassay testing apparent affinity of synthetic peptides for mAb 1H11; type: binding; settings: for Results: peptide binding to mAb 1H11, 1 μg synthetic peptide = X nmole BCE: nanomoles Bone Collagen Equivalents equivalent to 1 μg peptide, back fit into OSTEOMARK standard curve, values between 0.5 and 1 OD averaged; for binding to mAb 1H11 (in words): synthetic peptide, antibody inhibition assay
Text: Generally, a milligram per mL solution of the peptide was made in PBS. The absorbence at A280 was read and the concentration confirmed. Dilutions of the peptide were then made in a buffer such as OSTEOMARK (TM) calibrator diluent (OSTEOMARK Assay, Ostex International, Seattle, Wash.). Working strength concentrations were between 10 and 0.01 micrograms per milliliter.
To test the apparent affinity of the synthetic peptides for mAb 1H11, the OSTEOMARK assay was run using OSTEOMARK kits and components, including monoclonal antibody 1H11. A standard curve was run using OSTEOMARK calibrators. Peptide samples were generally tested at 10, 3, 1, and down to 0.01 μG per mL. The standard OSTEOMARK curve was generated using a four parameter logistic curve fit program (MedData Inc., N.Y., N.Y.). Peptide values were back fit into the standard curve and values were reported in picomoles Bone Collagen Equivalents (BCE)/mL (which equals nanomolar BCE, or nM BCE).
Values in the Table are reported as the number of nanomoles of BCE equivalent to a microgram of a given peptide. Antibody binding values below 500 nMole BCE were considered to be commercially insignificant.

mAb 1H11 [2] = settings: linear peptides in which K is simply lysine; WO 91/08478; Hanson et al. 1992; cited from earlier work

Molecule	Results: peptide binding to mAb 1H11, 1 μg synthetic peptide = X nmole BCE (mAb 1H11 [1]) [nmole BCE]	binding to mAb 1H11 (in words) (mAb 1H11 [1])	recognition by mAb 1H11 (in words) (mAb 1H11 [2])	Results: peptide binding to mAb 1H11, 1 μg synthetic peptide = X nmole BCE (mAb 1H11 [1]; listed as 31) [nmole BCE]
CC(C)[C@H](NC(=O)CNC(=O)[C@H](CCCCN)NC(=O)CNC(=O)[C@H](CC(=O)O)NC(=O)[C@H](Cc1ccc(O)cc1)NC(=O)[C@@H]1CCC(=O)N1)C(=O)NCC(=O)O [SEQ ID NO:9, J Y D G K G V G] ([pGlu]YDGKGVG-OH)	100	very weak binding partner	recognized very weakly	
CC(C)[C@H](NC(=O)[C@H](C)NC(=O)[C@H](CCC(=O)O)NC(=O)CNC(=O)[C@H](CC(=O)O)NC(=O)[C@H](Cc1ccc(O)cc1)NC(=O)[C@@H]1CCC(=O)N1)C(=O)NCC(=O)O [SEQ ID NO:28, J Y D G E A V G] ([pGlu]YDGEAVG-OH)	< 50	loss of mAb 1H11 binding affinity		
CC(C)[C@H](NC(=O)CNC(=O)[C@H](CCC(=O)O)NC(=O)CNC(=O)[C@H](CCC(=O)O)NC(=O)[C@H](Cc1ccc(O)cc1)NC(=O)[C@@H]1CCC(=O)N1)C(=O)NCC(=O)O [SEQ ID NO:30, J Y E G E G V G] ([pGlu]YEGEGVG-OH)	3000			
CC(C)[C@H](NC(=O)CNC(=O)[C@H](CC(=O)O)NC(=O)CNC(=O)[C@H](CC(=O)O)NC(=O)[C@H](Cc1ccc(O)cc1)NC(=O)[C@@H]1CCC(=O)N1)C(=O)NCC(=O)O [SEQ ID NO:31, J Y D G D G V G] ([pGlu]YDGDGVG-OH)				1400
CC(C)[C@H](NC(=O)CNC(=O)[C@H](CC(=O)O)NC(=O)CNC(=O)[C@H](CCC(=O)O)NC(=O)[C@H](Cc1ccc(O)cc1)NC(=O)[C@@H]1CCC(=O)N1)C(=O)NCC(=O)O [SEQ ID NO:32, J Y E G D G V G] ([pGlu]YEGDGVG-OH)	1000			
CC(C)[C@H](NC(=O)CNC(=O)[C@H](CCCC(=O)O)NC(=O)CNC(=O)[C@H](CC(=O)O)NC(=O)[C@H](Cc1ccc(O)cc1)NC(=O)[C@@H]1CCC(=O)N1)C(=O)NCC(=O)O [SEQ ID NO:34, J Y D G X^4 G V G] ([pGlu]YDG[Aad]GVG-OH)	750			
CC(C)[C@H](NC(=O)CNC(=O)[C@H](CCC(=O)O)NC(=O)CNC(=O)[C@H](CC(=O)O)NC(=O)[C@H](Cc1ccccc1)NC(=O)[C@@H]1CCC(=O)N1)C(=O)NCC(=O)O [SEQ ID NO:36, J F D G E G V G] ([pGlu]FDGEGVG-OH)	14	blocks mAb 1H11 binding		
CC(C)[C@H](NC(=O)CNC(=O)[C@H](CCC(=O)O)NC(=O)[C@@H](NC(=O)[C@H](CC(=O)O)NC(=O)[C@H](Cc1ccc(O)cc1)NC(=O)[C@@H]1CCC(=O)N1)C(C)C)C(=O)NCC(=O)O [SEQ ID NO:37, J Y D V E G V G] ([pGlu]YDVEGVG-OH)	6	substantially eliminates mAb 1H11 binding affinity		
CCC[C@H](NC(=O)CNC(=O)[C@H](CC(=O)O)NC(=O)[C@H](Cc1ccc(O)cc1)NC(=O)[C@@H]1CCC(=O)N1)C(=O)NCC(=O)N[C@H](C(=O)NCC(=O)O)C(C)C [SEQ ID NO:38, J Y D G X^5 G V G] ([pGlu]YDG[Nva]GVG-OH)	860			
CC(C)[C@H](NC(=O)CNC(=O)[C@H](CCC(=O)O)NC(=O)CNC(=O)[C@H](CC(=O)O)NC(=O)[C@H](Cc1ccc(O)cc1)NC(=O)[C@@H]1CCC(=O)N1)C(=O)NCC(N)=O [SEQ ID NO:44, J Y D G E G V X^6] ([pGlu]YDGEGVG-NH2)	< 50	prevented recognition		
J Y D G C G V G [SEQ ID NO:2]	2500	excellent binding to mAb 1H11		
J Y D G E G V G L [SEQ ID NO:40, b13: -Lys added to the C-terminus]	< 50	prevents mAb 1H11 binding		
J Y D G E G V G [SEQ ID NO:29]	< 50	eliminate the requisite binding of mAb 1H11		
